pIC50: −log10 of the molar value. Where two headings read alike, the source gives them in different places.

In experiment [1] the target is T1, Cyclooxygenase (Rattus norvegicus, UniProt Q63921).
T1 construct: host or cells: RBL-1 rat basophilic leukemia cells
T1 sequence (Q63921 27-602): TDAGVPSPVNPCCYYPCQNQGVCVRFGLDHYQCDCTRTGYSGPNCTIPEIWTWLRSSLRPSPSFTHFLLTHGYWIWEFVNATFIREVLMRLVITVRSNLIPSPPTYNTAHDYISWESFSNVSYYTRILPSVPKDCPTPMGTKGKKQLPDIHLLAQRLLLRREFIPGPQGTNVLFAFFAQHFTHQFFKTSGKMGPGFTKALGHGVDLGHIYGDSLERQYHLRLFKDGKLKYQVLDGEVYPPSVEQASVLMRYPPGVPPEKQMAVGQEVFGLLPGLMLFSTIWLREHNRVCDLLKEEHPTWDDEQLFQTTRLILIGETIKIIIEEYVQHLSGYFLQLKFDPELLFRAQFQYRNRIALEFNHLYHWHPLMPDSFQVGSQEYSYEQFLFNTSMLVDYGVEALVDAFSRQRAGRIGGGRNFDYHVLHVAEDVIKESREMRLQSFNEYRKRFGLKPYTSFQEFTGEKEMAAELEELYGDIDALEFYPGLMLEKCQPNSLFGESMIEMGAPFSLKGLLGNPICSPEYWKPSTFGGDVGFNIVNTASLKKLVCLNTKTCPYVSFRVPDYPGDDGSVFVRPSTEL
In words: ARBC whole cell cyclooxygenase assay (PGF2α formation in RBL-1 cells, A23187 stimulated). The experiment is classed as cell-based. The note with it: for pIC50: read-out: ARBC IC50 (inhibition of PGF2α formation). The protocol: (§1) ARBL/ARBC Whole Cell 5-Lipoxygenase and Cyclooxygenase Assays
(§2) The rat basophilic leukemia cell line (RBL-1) was obtained from the American Type Culture Collection (Rockville, MD).
(§3) Radioimmunoassay (RIA) kits of LTB4 and PGF2α were obtained from Amersham (Arlington Heights, IL) and Seragen (Boston, MA), respectively.
(§4) RBL-1 cells are grown in suspension culture in Eagle's minimum essential medium supplemented with 12% fetal bovine serum at 37° C. in an incubator supplied with air-5% carbon dioxide. Cells are harvested by centrifugation. They are washed with cold phosphate buffered saline pH 7.4 (PBS; NaCl, 7.1 g; Na2 HPO4, 1.15 g; KH2 PO4, 0.2 g; and KCl, 0.2 g/l). Cells are finally suspended in PBS containing 1.0 mM calcium at a density of 2×10^6 cells/ml. Cells are incubated with and without test agent (in DMSO) (1% DMSO is without effect on arachidonic acid metabolism) for ten minutes at room temperature. Calcium ionophore A23187 (5 μM) is added and cells are incubated for seven minutes at 37° C. The reaction is stopped by chilling the tubes on ice for ten minutes. Cells are separated by centrifugation and the supernatant is stored at -20° C. Aliquots (100 μl) are analyzed for LTB4 and PGF2α using radioimmunoassay kits as provided by the supplier.
(§5) Tables 1-4 contain biochemical data obtained from this whole cell assay either as IC50 s which are calculated as the amount of test compound causing 50% inhibition of LTB4 or PGF2α formation or % inhibition of LTB4 or PGF2α at the indicated amount expressed as μM.

Experiment [2] concerns the target T2, 5-Lipoxygenase (Rattus norvegicus, UniProt P12527).
T2 construct: host or cells: RBL-1 rat basophilic leukemia cells
T2 sequence (P12527 1-673): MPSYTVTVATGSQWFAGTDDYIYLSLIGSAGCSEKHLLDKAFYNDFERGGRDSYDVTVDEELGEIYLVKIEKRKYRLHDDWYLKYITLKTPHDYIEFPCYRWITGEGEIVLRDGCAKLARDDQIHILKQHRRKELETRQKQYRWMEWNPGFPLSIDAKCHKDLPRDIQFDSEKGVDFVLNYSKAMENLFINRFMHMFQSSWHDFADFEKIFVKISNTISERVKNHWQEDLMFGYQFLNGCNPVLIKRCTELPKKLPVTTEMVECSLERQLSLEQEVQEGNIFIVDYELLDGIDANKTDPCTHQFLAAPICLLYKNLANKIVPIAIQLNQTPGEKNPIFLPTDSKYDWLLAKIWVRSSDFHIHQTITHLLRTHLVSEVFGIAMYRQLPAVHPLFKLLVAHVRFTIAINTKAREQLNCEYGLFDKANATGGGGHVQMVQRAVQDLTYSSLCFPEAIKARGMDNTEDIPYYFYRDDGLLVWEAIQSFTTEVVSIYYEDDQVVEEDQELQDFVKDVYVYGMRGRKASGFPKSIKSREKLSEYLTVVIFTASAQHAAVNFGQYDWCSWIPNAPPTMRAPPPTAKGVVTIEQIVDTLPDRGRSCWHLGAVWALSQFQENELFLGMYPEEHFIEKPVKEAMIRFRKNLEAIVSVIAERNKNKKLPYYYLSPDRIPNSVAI
The experiment is described as follows: ARBL whole cell 5-lipoxygenase assay (LTB4 formation in RBL-1 cells, A23187 stimulated). It counts as cell-based. The note with it: for pIC50: read-out: ARBL IC50 (inhibition of LTB4 formation). How it is done: as §1, §2, §3, §4, §5

The mark [3] stands for this setting: RBL-1 cells, read-out: ARBC % inhibition of PGF2α.
The mark [4] stands for this setting: RBL-1 cells, read-out: ARBL % inhibition of LTB4.
Setting [5] is: RBL-1, Table 1, read-out: ARBC % inhibition (N).
[6] abbreviates: RBL-1, Table 2, read-out: ARBC % inhibition (N).

What is called inhibition is the relative decrease from the control value, in per cent. Turning to `ONCc1ccc2c(c1)Cc1ccccc1-2` [Example 1, N-Hydroxy-9H-fluorene-2-methanamine], the results for the inhibition at 16 µM in experiment [1] (setting [3]) and in experiment [2] (setting [4]) were 76% and 97%, respectively.
Turning to `CCOC(=O)C(=O)N(O)Cc1ccc2c(c1)Cc1ccccc1-2` [Example 2, (9H-Fluoren-2-ylmethyl)hydroxyamino-oxo-acetic acid, ethyl ester], the inhibition at 16 µM in experiment [1] (setting [5]) is under 40%; in experiment [2] (setting [4]), 96%.
Consider `O=C(O)C(=O)N(O)Cc1ccc2c(c1)Cc1ccccc1-2` [Example 3, (9H-Fluoren-2-ylmethyl)hydroxyamino-oxo-acetic acid], for which the inhibition at 16 µM in experiment [1] (setting [5]) was under 40%; in experiment [2] (RBL-1, Table 1, read-out: ARBL % inhibition (N)), under 40%.
Usually pIC50 stands for the IC50 on a negative log10 scale, so that one unit is a factor of ten. In the case of `CC(=O)N(O)Cc1ccc2c(c1)Cc1ccccc1-2` [Example 4, N-(9H-Fluoren-2-ylmethyl)-N-hydroxy-acetamide], the pIC50 in experiment [1] (RBL-1 cells) is 4.92. Also, the inhibition at 16 µM in experiment [2] (setting [4]) amounted to 100%.
For the compound `CC(C)C(=O)N(O)Cc1ccc2c(c1)Cc1ccccc1-2` [Example 5, N-(9H-Fluoren-2-ylmethyl)-N-hydroxy-2-methyl-propanamide], the results for the inhibition at 16 µM in experiment [1] (setting [5]) and in experiment [2] (setting [4]) were under 40% and 99%, respectively.
For `CNC(=O)N(O)Cc1ccc2c(c1)Cc1ccccc1-2` [Example 6, N-(9H-Fluoren-2-ylmethyl)-N-hydroxy-N'-methylurea], the inhibition at 16 µM is under 40% in experiment [1] (setting [5]) and 100% in experiment [2] (setting [4]).
On to `CC(NO)c1ccc2c(c1)Cc1ccccc1-2` (stereo not drawn) [Example 7, N-Hydroxy-α-methyl-9H-fluorene-2-methanamine], for which the inhibition at 16 µM in experiment [1] (setting [3]) turned out to be 89%; in experiment [2] (setting [4]) it was 100%.
Regarding `CNC(=O)N(O)C(C)c1ccc2c(c1)Cc1ccccc1-2` (stereo not drawn) [Example 8, N-(1-(9H-Fluoren-2-yl)ethyl)-N-hydroxy-N'-methylurea], the inhibition at 16 µM in experiment [1] (setting [5]) was under 40%. Besides, the pIC50 in experiment [2] (RBL-1 cells) is 6.04.
Take `CCNC(=O)N(O)C(C)c1ccc2c(c1)Cc1ccccc1-2` (stereo not drawn) [Example 9, N'-Ethyl-N-(1-(9H-fluoren-2-yl)ethyl)-N-hydroxyurea]: the inhibition at 16 µM in experiment [1] (setting [3]) is 49%; in experiment [2] (setting [4]) it was 100%.
For the compound `CNC(=S)N(O)C(C)c1ccc2c(c1)Cc1ccccc1-2` (stereo not drawn) [Example 10, N-(1-(9H-Fluoren-2-yl)ethyl)-N-hydroxy-N'-methylthiourea], the inhibition at 16 µM was 59% in experiment [1] (setting [3]) and 100% in experiment [2] (setting [4]).
Consider `CC(=O)N(O)C(C)c1ccc2c(c1)Cc1ccccc1-2` (stereo not drawn) [Example 11, N-(1-(9H-Fluoren-2-yl)ethyl)-N-hydroxy-acetamide], for which, in experiment [1] (setting [5]), the inhibition at 16 µM is under 40%. In experiment [2] (RBL-1 cells), the pIC50 is 6.12.
As to `CCOC(=O)N(O)C(C)c1ccc2c(c1)Cc1ccccc1-2` (stereo not drawn) [Example 12, N-Hydroxy-alpha-methyl-9H-fluorene-2-methanamine carbamic acid, ethyl ester], the inhibition at 16 µM in experiment [1] (setting [3]) is 79%; in experiment [2] (setting [4]), 95%.
Regarding `CC(C)C(=O)N(O)C(C)c1ccc2c(c1)Cc1ccccc1-2` (stereo not drawn) [Example 13], the inhibition at 16 µM in experiment [1] (setting [5]) was under 40%; in experiment [2] (setting [4]), 90%.
Regarding `CCNC(=S)N(O)C(C)c1ccc2c(c1)Cc1ccccc1-2` (stereo not drawn) [Example 14, N-(1-(9H-Fluoren-2-yl)ethyl)-N-hydroxy-N'-ethylthiourea], the inhibition at 16 µM in experiment [1] (setting [5]) is under 40%. The inhibition at 0.25 µM in experiment [2] (at 0.25 μM, RBL-1 cells) came to 56%.
Take `CC(C)C(=O)N(O)Cc1ccc2c(c1)OCc1ccccc1C2=O` [Example 17, N[(6,11-Dihydro-11-oxodibenz[b,el]oxepin-3-yl)methyl]N-hydroxy-2-methylpropanamide]: the pIC50 in experiment [1] (RBL-1 cells) is 5.24. The inhibition at 16 µM in experiment [2] (setting [4]) is 100%.
As for `CC(=O)N(O)Cc1ccc2c(c1)OCc1ccccc1C2=O` [Example 18, N-[(6,11-Dihydro-11-oxodibenz[b,el]oxepin-3-yl)methyl]-N-hydroxyacetamide], the inhibition at 16 µM in experiment [1] (setting [6]) was under 40%. The pIC50 in experiment [2] (RBL-1 cells) was 6.08.
Consider `CCOC(=O)C(=O)N(O)Cc1ccc2c(c1)OCc1ccccc1C2=O` [Example 19, Ethyl[[(6,11-Dihydro-11-oxodibenz[b,e]oxepin-3-yl)methyl]hydroxyamino]oxoacetate], for which the inhibition at 16 µM in experiment [1] (setting [6]) is under 40%; in experiment [2] (setting [4]), 84%.
Regarding `CNC(=O)N(O)Cc1ccc2c(c1)OCc1ccccc1C2=O` [Example 20, N-[(6,11-Dihydro-11-oxodibenz[b,e]oxepin-3-yl)methyl]-N-hydroxy-N'-methylurea], the inhibition at 16 µM in experiment [1] (setting [6]) was under 40%. For the same compound, in experiment [2] (RBL-1 cells), the pIC50 was 6.29.
Take `CC(=O)N(O)Cc1ccccc1Nc1cccc(C)c1C` [Example 47]: the results for the pIC50 in experiment [1] (RBL-1 cells) and in experiment [2] (RBL-1 cells) were 4.82 and 6.29, respectively.
Regarding `COc1ccc2c(c1)c(CN(O)C(C)=O)c(C)n2C(=O)c1ccc(Cl)cc1` [Example 63, N-[[1-(4-Chlorobenzoyl)-5-methoxy-2-methyl-1H-indole-3-yl]methyl]-N-hydroxyacetamide], the pIC50 in experiment [1] (RBL-1 cells) was 4.82.
`COc1ccc2c(c1)c(CN(O)C(=O)CCC(=O)O)c(C)n2C(=O)c1ccc(Cl)cc1` [Example 66, 4-[[[1-(4-Chlorobenzoyl)-5-methoxy-2-methyl-1H-indol-3-yl]methyl]hydroxyamino]-4-oxo-butanoic acid]: in experiment [2] (RBL-1, Table 4, read-out: ARBL % inhibition (N @ 16)), the inhibition at 16 µM was under 40%.
With `COC(=O)N(O)Cc1c(C)n(C(=O)c2ccc(Cl)cc2)c2ccc(OC)cc12` [Example 67, [[1-(4-Chlorobenzoyl)-5-methoxy-2-methyl-1H-indol-3-yl]methyl]hydroxycarbamic acid, methyl ester], in experiment [1] (RBL-1 cells), the pIC50 was 4.80.
As for `COc1ccc2c(c1)c(CN(O)C(N)=O)c(C)n2C(=O)c1ccc(Cl)cc1` [Example 68, N-(Aminocarbonyl)-1-(4-chlorobenzoyl)-N-hydroxy-5-methoxy-2-methyl-1H-indole-3-methanamine], the inhibition at 16 µM in experiment [2] (setting [4]) came out at 98%.
Take `CNC(=O)N(O)Cc1c(C)n(C(=O)c2ccc(Cl)cc2)c2ccc(OC)cc12` [Example 69, 1-(4-Chlorobenzoyl)-N-hydroxy-5-methoxy-2-methyl-N-[(methylamino)carbonyl]-1H-indole-3-methanamine]: the pIC50 in experiment [2] (RBL-1 cells) is 5.60.
Regarding `CCOC(=O)NC(=O)N(O)Cc1c(C)n(C(=O)c2ccc(Cl)cc2)c2ccc(OC)cc12` [Example 72, [[[[1-(4-Chlorobenzoyl)-5-methoxy-2-methyl-1H-indol-3-yl]methyl]hydroxyamino]carbonyl]carbamic acid, ethyl ester], the inhibition at 16 µM in experiment [2] (setting [4]) stood at 98%.
Same read-out and setting: to `CCOC(=O)CNC(=O)N(O)Cc1c(C)n(C(=O)c2ccc(Cl)cc2)c2ccc(OC)cc12` [Example 73, N-[[[[1-(4-Chlorobenzoyl)-5-methoxy-2-methyl-1H-indol-3-yl]methyl]hydroxyamino]carbonyl]glycine, ethyl ester] belongs 100%.

The values above are taken from patent publication US5112846A, “N-hydroxyamide, N-hydroxythioamide, hydroxyurea, and N-hydroxythiourea derivatives of selected nsaids as antiinflammatory agents” (Warner-Lambert Company, priority 1990, dated 1992).
